In PubChem BioAssay (NCI):
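Protocol summary: plate cells (96-well), add compound at 5 concentrations, incubate 48 h, interpolate endpoints linearly. TGI: concentration producing complete growth inhibition.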

Tests used:
Assay in all cases: growth of human tumour cells (NCI), 48 h
A498 renal = tested on: A498 renal
SNB-19 CNS = tested on: SNB-19 CNS
SR leukemia = tested on: SR leukemia
HCT-116 colon = tested on: HCT-116 colon
CCRF-CEM leukemia = tested on: CCRF-CEM leukemia
SF-539 CNS = tested on: SF-539 CNS
OVCAR-4 ovarian = tested on: OVCAR-4 ovarian
TK-10 renal = tested on: TK-10 renal
OVCAR-3 ovarian = tested on: OVCAR-3 ovarian
HCT-15 colon = tested on: HCT-15 colon
COLO 205 colon = tested on: COLO 205 colon
RXF-631 renal = tested on: RXF-631 renal
SN12C renal = tested on: SN12C renal
LXFL 529 NSCLC = tested on: LXFL 529 NSCLC
SF-268 CNS = tested on: SF-268 CNS
DMS 273 small cell lung = tested on: DMS 273 small cell lung
EKVX NSCLC = tested on: EKVX NSCLC
HOP-62 NSCLC = tested on: HOP-62 NSCLC
UO-31 renal = tested on: UO-31 renal
SK-MEL-2 melanoma = tested on: SK-MEL-2 melanoma
LOX IMVI melanoma = tested on: LOX IMVI melanoma
ACHN renal = tested on: ACHN renal
DLD-1 colon = tested on: DLD-1 colon
SK-OV-3 ovarian = tested on: SK-OV-3 ovarian
IGROV1 ovarian = tested on: IGROV1 ovarian
XF 498 CNS = tested on: XF 498 CNS
OVCAR-5 ovarian = tested on: OVCAR-5 ovarian
OVCAR-8 ovarian = tested on: OVCAR-8 ovarian
UACC-62 melanoma = tested on: UACC-62 melanoma
SNB-78 CNS = tested on: SNB-78 CNS
HCC-2998 colon = tested on: HCC-2998 colon
HT29 colon = tested on: HT29 colon
M14 melanoma = tested on: M14 melanoma
MOLT-4 leukemia = tested on: MOLT-4 leukemia
HOP-18 NSCLC = tested on: HOP-18 NSCLC
SK-MEL-5 melanoma = tested on: SK-MEL-5 melanoma
KM12 colon = tested on: KM12 colon
SW-620 colon = tested on: SW-620 colon
786-0 renal = tested on: 786-0 renal
MALME-3M melanoma = tested on: MALME-3M melanoma
RPMI-8226 leukemia = tested on: RPMI-8226 leukemia
K-562 leukemia = tested on: K-562 leukemia
DMS 114 small cell lung = tested on: DMS 114 small cell lung
NCI-H23 lung = tested on: NCI-H23 lung
M19-MEL melanoma = tested on: M19-MEL melanoma
SF-295 CNS = tested on: SF-295 CNS
HL-60(TB) leukemia = tested on: HL-60(TB) leukemia
SNB-75 CNS = tested on: SNB-75 CNS
HOP-92 NSCLC = tested on: HOP-92 NSCLC
UACC-257 melanoma = tested on: UACC-257 melanoma
CAKI-1 renal = tested on: CAKI-1 renal
U251 CNS = tested on: U251 CNS
NCI-H522 lung = tested on: NCI-H522 lung
NCI-H460 lung = tested on: NCI-H460 lung
SK-MEL-28 melanoma = tested on: SK-MEL-28 melanoma
A549 NSCLC = tested on: A549 NSCLC
NCI-H226 lung = tested on: NCI-H226 lung
RXF 393 renal = tested on: RXF 393 renal

Cn1ncc2c(Nc3ccc(Cl)cc3)c3ccccc3nc21
TGI (A498 renal): 29.7 µM | TGI (SNB-19 CNS): 43.9 µM | TGI (SR leukemia): > 100 µM | TGI (HCT-116 colon): 26.4 µM | TGI (CCRF-CEM leukemia): 56.7 µM | TGI (SF-539 CNS): 30.1 µM | TGI (OVCAR-4 ovarian): 29.2 µM | TGI (TK-10 renal): 77.3 µM | TGI (OVCAR-3 ovarian): 46.2 µM | TGI (HCT-15 colon): 40 µM | TGI (COLO 205 colon): 42.4 µM | TGI (RXF-631 renal): 33.5 µM | TGI (SN12C renal): 58.3 µM | TGI (LXFL 529 NSCLC): 34.7 µM | TGI (SF-268 CNS): 51.5 µM | TGI (DMS 273 small cell lung): 35.5 µM | TGI (EKVX NSCLC): > 10 µM | TGI (HOP-62 NSCLC): 31.9 µM | TGI (UO-31 renal): > 10 µM | TGI (SK-MEL-2 melanoma): 33.7 µM | TGI (LOX IMVI melanoma): 32.7 µM | TGI (ACHN renal): 55.9 µM | TGI (DLD-1 colon): 30.3 µM | TGI (SK-OV-3 ovarian): 54.9 µM | TGI (IGROV1 ovarian): 54.7 µM | TGI (XF 498 CNS): > 10 µM | TGI (OVCAR-5 ovarian): 47.5 µM | TGI (OVCAR-8 ovarian): 30.3 µM | TGI (UACC-62 melanoma): 31.6 µM | TGI (SNB-78 CNS): 74.6 µM | TGI (HCC-2998 colon): 39.7 µM | TGI (HT29 colon): 27.1 µM | TGI (M14 melanoma): 28.3 µM | TGI (MOLT-4 leukemia): 63.2 µM | TGI (HOP-18 NSCLC): 69.5 µM | TGI (SK-MEL-5 melanoma): 26.7 µM | TGI (KM12 colon): 40.9 µM | TGI (SW-620 colon): 39.1 µM | TGI (786-0 renal): 32.4 µM | TGI (MALME-3M melanoma): 39.7 µM | TGI (RPMI-8226 leukemia): 93.9 µM | TGI (K-562 leukemia): 56.7 µM | TGI (DMS 114 small cell lung): 34.5 µM | TGI (NCI-H23 lung): > 10 µM | TGI (M19-MEL melanoma): 37.2 µM | TGI (SF-295 CNS): 36 µM | TGI (HL-60(TB) leukemia): 73.6 µM | TGI (SNB-75 CNS): 29.2 µM | TGI (HOP-92 NSCLC): 39.1 µM | TGI (UACC-257 melanoma): 31.7 µM | TGI (CAKI-1 renal): 80.6 µM | TGI (U251 CNS): 29.3 µM | TGI (NCI-H522 lung): 37.2 µM | TGI (NCI-H460 lung): 52.7 µM | TGI (SK-MEL-28 melanoma): 29.7 µM | TGI (A549 NSCLC): 43.2 µM | TGI (NCI-H226 lung): 35.4 µM

CCCCCCCCCCC(O)CCCCCCC(=O)O (stereo not drawn)
TGI (A498 renal): 46.1 µM | TGI (SNB-19 CNS): > 100 µM | TGI (SR leukemia): 41.9 µM | TGI (HCT-116 colon): 33.3 µM | TGI (CCRF-CEM leukemia): 91.3 µM | TGI (SF-539 CNS): 67.3 µM | TGI (OVCAR-4 ovarian): > 100 µM | TGI (TK-10 renal): > 100 µM | TGI (OVCAR-3 ovarian): 45.3 µM | TGI (COLO 205 colon): 30 µM | TGI (RXF-631 renal): 39.1 µM | TGI (SN12C renal): 50.7 µM | TGI (LXFL 529 NSCLC): 71 µM | TGI (SF-268 CNS): > 100 µM | TGI (DMS 273 small cell lung): 55.6 µM | TGI (EKVX NSCLC): > 100 µM | TGI (HOP-62 NSCLC): > 100 µM | TGI (UO-31 renal): > 100 µM | TGI (SK-MEL-2 melanoma): > 100 µM | TGI (LOX IMVI melanoma): 31.1 µM | TGI (ACHN renal): 54 µM | TGI (DLD-1 colon): 59.7 µM | TGI (SK-OV-3 ovarian): > 100 µM | TGI (IGROV1 ovarian): 34.6 µM | TGI (XF 498 CNS): 88.9 µM | TGI (OVCAR-5 ovarian): > 100 µM | TGI (OVCAR-8 ovarian): 31.1 µM | TGI (UACC-62 melanoma): 41.7 µM | TGI (SNB-78 CNS): > 100 µM | TGI (HT29 colon): 40.6 µM | TGI (M14 melanoma): 44.3 µM | TGI (MOLT-4 leukemia): 34.5 µM | TGI (HOP-18 NSCLC): 63 µM | TGI (SK-MEL-5 melanoma): 29.9 µM | TGI (KM12 colon): 31.6 µM | TGI (SW-620 colon): 86.5 µM | TGI (786-0 renal): 93.3 µM | TGI (MALME-3M melanoma): 59.5 µM | TGI (RPMI-8226 leukemia): 28.2 µM | TGI (RXF 393 renal): 98 µM | TGI (K-562 leukemia): 39.1 µM | TGI (DMS 114 small cell lung): 56.2 µM | TGI (NCI-H23 lung): > 100 µM | TGI (M19-MEL melanoma): > 100 µM | TGI (SF-295 CNS): 80.8 µM | TGI (HL-60(TB) leukemia): 25.6 µM | TGI (SNB-75 CNS): > 100 µM | TGI (HOP-92 NSCLC): 37.3 µM | TGI (UACC-257 melanoma): > 100 µM | TGI (CAKI-1 renal): > 100 µM | TGI (U251 CNS): 45.8 µM | TGI (NCI-H522 lung): 62.5 µM | TGI (NCI-H460 lung): 32.4 µM | TGI (SK-MEL-28 melanoma): > 100 µM | TGI (A549 NSCLC): 54.7 µM | TGI (NCI-H226 lung): > 100 µM
